Laboratory results taken from US9950091B2, “Composition and method for stopping hemorrhage, infection, and accelerating healing in various types of wound or burns” (priority 2015, dated 2018).

System: human blood (platelet/fibrin clot)
Test: Thrombelastography (TEG) clot kinetics in whole blood
Assay type: cell-based
Settings: Table 4, mean ± SD, n=4, control = normal blood, 'Heparin +' lines in presence of heparin
From the text: Thrombelastography techniques, which are commonly used in the clinical laboratory for monitoring coagulation functions, were utilized. Siliconized Vacutainer tubes (Becton Dickinson, Rutherford, N.J.) were used to collect whole blood. To maintain a ratio of citrate to whole blood of 1:9 (v/v), the tubes contained 3.2% trisodium citrate. Blood samples were placed on a slow speed rocker until TEG analysis.
Whole Blood Coagulation Analyzer, Model 5000 Thrombelastograph, Hemoscope Corporation, Skokie, Ill., was used. TEG is based on the measurement of the physical viscoelastic characteristics of blood clots. An oscillating plastic cylindrical cuvette (“cup”) and a coaxially suspended stationary piston (“pin”) with a […] clearance between the surfaces are used to monitor clot formation at 37° C. Every 4.5 seconds, with a 1-second mid cycle stationary period, the cup oscillates in either direction, resulting in a frequency of 0.1 Hz. […]
Different hydrogel polycatioinic matrix micro-composites were evaluated. […]
A standard global coagulation assay, namely Thrombelastography, uses a total of 5 ml blood from human volunteers. Additionally, the efficiency of the optimal hydrogel compositions that have the shortest Time to Clotting (R) and the strongest clot strength (MA) were evaluated in stopping severe bleeding in a hemorrhage simulation model system. […]

In the case of NC[C@H]1CC[C@H](C(=O)O)CC1 [tranexamic acid (TXA), tranexamic acid], the “MA-Clot Strength” value is reported as 57 ± 4 mm and the “R - Time to Clot initiation” value is reported as 9.0 ± 4 min.
